Source: patent US20230398130A1, “METHODS AND COMPOSITIONS FOR DIFFERENTIATING STEM CELLS” (Massachusetts Institute of Technology, priority 2020, published 2023)

Columns and labels:
ISC-enriched organoids [1] = test: Primary screen, 384-well 2.5-D organoid differentiation (ENR+CD, 6 days): basal lysozyme secretion (LYZ.NS); type: cell-based, murine; settings: for Dose.FC.LYZ.NS: FC vs plate median; for Z.LYZ.NS: standard z score of FC; for Dose.FC.LYZ.NS (log 2 fold change, basal lysozyme secretion) / Dose.FC.LYZ.NS (log 2 fold change): vs plate median
Source text: (§1) High-throughput screening.

ISC-enriched organoids [2] = test: Primary screen, 384-well 2.5-D organoid differentiation (ENR+CD, 6 days): carbachol-induced lysozyme secretion (LYZ.S); type: cell-based, murine; settings: for Dose.FC.LYZ.S: FC vs plate median; for Dose.FC.LYZ.S (log 2 fold change, carbachol-induced lysozyme secretion) / Dose.FC.LYZ.S (log 2 fold change): vs plate median
Source text: as §1

ISC-enriched organoids [3] = test: Primary screen, 384-well 2.5-D organoid differentiation (ENR+CD, 6 days, Target Selective Inhibitor Library, vs whole-plate median): ATP (CellTiter-Glo 3D, CTG); settings: for Dose.FC.CTG: FC vs plate median; for Z.CTG: standard z score of FC; for Dose.FC.CTG (log 2 fold change, ATP) / Dose.FC.CTG (log 2 fold change): vs plate median
[4] = dose 0.08 uM (1st of 4 lines per treatment; dose not printed in this part)
[5] = dose 0.40 uM (2nd of 4 lines per treatment; dose not printed in this part)
[6] = dose 2.00 uM (3rd of 4 lines per treatment; dose not printed in this part)
[7] = dose 10.00 uM (4th of 4 lines per treatment; dose not printed in this part)
[8] = primary screen, dose 0.08 uM, ENR+CD 6 days
[9] = primary screen, dose 0.40 uM, ENR+CD 6 days
[10] = primary screen, dose 2.00 uM, ENR+CD 6 days
[11] = primary screen, dose 10.00 uM, ENR+CD 6 days

CC1=C(C(=O)OC2CCCCC2)C(c2ccc([N+](=O)[O-])cc2)C2=C(CC(C)(C)CC2=O)N1 (stereo not drawn) [FLI-06]
Dose.FC.LYZ.NS (ISC-enriched organoids [1]; Dose 0.08 uM, ENR+CD, 6 days): 0.050 log 2 fold change
Z.LYZ.NS (ISC-enriched organoids [1]; Dose 0.08 uM): 0.439
Dose.FC.LYZ.NS (ISC-enriched organoids [1]; Dose 0.40 uM, ENR+CD, 6 days): −0.026 log 2 fold change
Z.LYZ.NS (ISC-enriched organoids [1]; Dose 0.40 uM): −0.230
Dose.FC.LYZ.NS (ISC-enriched organoids [1]; Dose 2.00 uM, ENR+CD, 6 days): −0.054 log 2 fold change
Z.LYZ.NS (ISC-enriched organoids [1]; Dose 2.00 uM): −0.466
Dose.FC.LYZ.NS (ISC-enriched organoids [1]; Dose 10.00 uM, ENR+CD, 6 days): −0.140 log 2 fold change
Z.LYZ.NS (ISC-enriched organoids [1]; Dose 10.00 uM): −1.216
Dose.FC.LYZ.S (ISC-enriched organoids [2]; Dose 0.08 uM, ENR+CD, 6 days): 0.079 log 2 fold change
Dose.FC.LYZ.S (ISC-enriched organoids [2]; Dose 0.40 uM, ENR+CD, 6 days): 0.010 log 2 fold change
Dose.FC.LYZ.S (ISC-enriched organoids [2]; Dose 2.00 uM, ENR+CD, 6 days): −0.077 log 2 fold change
Dose.FC.LYZ.S (ISC-enriched organoids [2]; Dose 10.00 uM, ENR+CD, 6 days): −0.170 log 2 fold change
Dose.FC.CTG (ISC-enriched organoids [3]; Dose 0.08 uM, ENR+CD, 6 days): 0.089 log 2 fold change
Z.CTG (ISC-enriched organoids [3]; Dose 0.08 uM): 0.213
Dose.FC.CTG (ISC-enriched organoids [3]; Dose 0.40 uM, ENR+CD, 6 days): 0.095 log 2 fold change
Z.CTG (ISC-enriched organoids [3]; Dose 0.40 uM): 0.226
Dose.FC.CTG (ISC-enriched organoids [3]; Dose 2.00 uM, ENR+CD, 6 days): 0.076 log 2 fold change
Z.CTG (ISC-enriched organoids [3]; Dose 2.00 uM): 0.182
Dose.FC.CTG (ISC-enriched organoids [3]; Dose 10.00 uM, ENR+CD, 6 days): −0.343 log 2 fold change
Z.CTG (ISC-enriched organoids [3]; Dose 10.00 uM): −0.819

CN(C)CCCCC(=O)Nc1ccc(NC(=S)NC(=O)c2ccc(C(C)(C)C)cc2)cc1 [Tenovin-6]
Z.LYZ.NS (standard z score) (ISC-enriched organoids [1]; dose 0.08 uM): 1.050
Dose.FC.LYZ.NS (log 2 fold change, basal lysozyme secretion) (ISC-enriched organoids [1]; dose 0.08 uM): 0.121
Z.LYZ.NS (standard z score) (ISC-enriched organoids [1]; dose 0.40 uM): −0.463
Dose.FC.LYZ.NS (log 2 fold change, basal lysozyme secretion) (ISC-enriched organoids [1]; dose 0.40 uM): −0.053
Z.LYZ.NS (standard z score) (ISC-enriched organoids [1]; dose 2.00 uM): −1.686
Dose.FC.LYZ.NS (log 2 fold change, basal lysozyme secretion) (ISC-enriched organoids [1]; dose 2.00 uM): −0.194
Z.LYZ.NS (standard z score) (ISC-enriched organoids [1]; dose 10.00 uM): −1.671
Dose.FC.LYZ.NS (log 2 fold change, basal lysozyme secretion) (ISC-enriched organoids [1]; dose 10.00 uM): −0.192
Dose.FC.LYZ.S (log 2 fold change, carbachol-induced lysozyme secretion) (ISC-enriched organoids [2]; dose 0.08 uM): 0.028
Dose.FC.LYZ.S (log 2 fold change, carbachol-induced lysozyme secretion) (ISC-enriched organoids [2]; dose 0.40 uM): −0.109
Dose.FC.LYZ.S (log 2 fold change, carbachol-induced lysozyme secretion) (ISC-enriched organoids [2]; dose 2.00 uM): −0.328
Dose.FC.LYZ.S (log 2 fold change, carbachol-induced lysozyme secretion) (ISC-enriched organoids [2]; dose 10.00 uM): −0.344
Z.CTG (standard z score) (ISC-enriched organoids [3]; dose 0.08 uM): 0.165
Dose.FC.CTG (log 2 fold change, ATP) (ISC-enriched organoids [3]; dose 0.08 uM): 0.069
Z.CTG (standard z score) (ISC-enriched organoids [3]; dose 0.40 uM): −1.209
Dose.FC.CTG (log 2 fold change, ATP) (ISC-enriched organoids [3]; dose 0.40 uM): −0.506
Z.CTG (standard z score) (ISC-enriched organoids [3]; dose 2.00 uM): −2.654
Dose.FC.CTG (log 2 fold change, ATP) (ISC-enriched organoids [3]; dose 2.00 uM): −1.111
Z.CTG (standard z score) (ISC-enriched organoids [3]; dose 10.00 uM): −3.414
Dose.FC.CTG (log 2 fold change, ATP) (ISC-enriched organoids [3]; dose 10.00 uM): −1.429

O=C(Nc1ccccc1Br)N[C@@H]1CCN(c2ccc(C(F)(F)F)cn2)C1 [SB705498]
Z.LYZ.NS (standard z score) (ISC-enriched organoids [1]; Dose 0.08 uM, primary screen): 0.642
Dose.FC.LYZ.NS (log 2 fold change) (ISC-enriched organoids [1]; Dose 0.08 uM, primary screen): 0.074
Z.LYZ.NS (standard z score) (ISC-enriched organoids [1]; Dose 0.40 uM, primary screen): −0.433
Dose.FC.LYZ.NS (log 2 fold change) (ISC-enriched organoids [1]; Dose 0.40 uM, primary screen): −0.050
Z.LYZ.NS (standard z score) (ISC-enriched organoids [1]; Dose 2.00 uM, primary screen): −0.008
Dose.FC.LYZ.NS (log 2 fold change) (ISC-enriched organoids [1]; Dose 2.00 uM, primary screen): −0.001
Z.LYZ.NS (standard z score) (ISC-enriched organoids [1]; Dose 10.00 uM, primary screen): −0.154
Dose.FC.LYZ.NS (log 2 fold change) (ISC-enriched organoids [1]; Dose 10.00 uM, primary screen): −0.018
Dose.FC.LYZ.S (log 2 fold change) (ISC-enriched organoids [2]; Dose 0.08 uM, primary screen): 0.094
Dose.FC.LYZ.S (log 2 fold change) (ISC-enriched organoids [2]; Dose 0.40 uM, primary screen): 0.023
Dose.FC.LYZ.S (log 2 fold change) (ISC-enriched organoids [2]; Dose 2.00 uM, primary screen): −0.030
Dose.FC.LYZ.S (log 2 fold change) (ISC-enriched organoids [2]; Dose 10.00 uM, primary screen): −0.023
Z.CTG (standard z score) (ISC-enriched organoids [3]; Dose 0.08 uM, primary screen): 0.318
Dose.FC.CTG (log 2 fold change) (ISC-enriched organoids [3]; Dose 0.08 uM, primary screen): 0.133
Z.CTG (standard z score) (ISC-enriched organoids [3]; Dose 0.40 uM, primary screen): −0.102
Dose.FC.CTG (log 2 fold change) (ISC-enriched organoids [3]; Dose 0.40 uM, primary screen): −0.043
Z.CTG (standard z score) (ISC-enriched organoids [3]; Dose 2.00 uM, primary screen): −0.009
Dose.FC.CTG (log 2 fold change) (ISC-enriched organoids [3]; Dose 2.00 uM, primary screen): −0.004
Z.CTG (standard z score) (ISC-enriched organoids [3]; Dose 10.00 uM, primary screen): −0.089
Dose.FC.CTG (log 2 fold change) (ISC-enriched organoids [3]; Dose 10.00 uM, primary screen): −0.037

CC(C)N(CC[C@H](c1ccccc1)c1cc(CO)ccc1O)C(C)C [5-hydroxymethyl Tolterodine (PNU 200577, 5-HMT, 5-HM)]
SSMD.LYZ.NS_Rep (strictly standardized mean difference) (ISC-enriched organoids [1]; [4]): 0.915
SSMD.LYZ.NS_Rep (strictly standardized mean difference) (ISC-enriched organoids [1]; [5]): 0.760
SSMD.LYZ.NS_Rep (strictly standardized mean difference) (ISC-enriched organoids [1]; [6]): 0.947
SSMD.LYZ.NS_Rep (strictly standardized mean difference) (ISC-enriched organoids [1]; [7]): 0.223
Dose.FC.LYZ.NS (ISC-enriched organoids [1]; [8]): 0.184 log 2 fold change
Z.LYZ.NS (ISC-enriched organoids [1]; primary screen, dose 0.08 uM): 1.599
Dose.FC.LYZ.NS (ISC-enriched organoids [1]; [9]): 0.076 log 2 fold change
Z.LYZ.NS (ISC-enriched organoids [1]; primary screen, dose 0.40 uM): 0.665
Dose.FC.LYZ.NS (ISC-enriched organoids [1]; [10]): 0.154 log 2 fold change
Z.LYZ.NS (ISC-enriched organoids [1]; primary screen, dose 2.00 uM): 1.344
Dose.FC.LYZ.NS (ISC-enriched organoids [1]; [11]): 0.034 log 2 fold change
Z.LYZ.NS (ISC-enriched organoids [1]; primary screen, dose 10.00 uM): 0.293
SSMD.LYZ.S_Rep (strictly standardized mean difference) (ISC-enriched organoids [2]; [4]): 0.460
Z.LYZ.S (standard z score) (ISC-enriched organoids [2]; [4]): 0.417
SSMD.LYZ.S_Rep (strictly standardized mean difference) (ISC-enriched organoids [2]; [5]): 0.266
Z.LYZ.S (standard z score) (ISC-enriched organoids [2]; [5]): 0.231
SSMD.LYZ.S_Rep (strictly standardized mean difference) (ISC-enriched organoids [2]; [6]): 0.174
Z.LYZ.S (standard z score) (ISC-enriched organoids [2]; [6]): 0.152
SSMD.LYZ.S_Rep (strictly standardized mean difference) (ISC-enriched organoids [2]; [7]): −0.042
Z.LYZ.S (standard z score) (ISC-enriched organoids [2]; [7]): −0.044
Dose.FC.LYZ.S (ISC-enriched organoids [2]; [8]): 0.065 log 2 fold change
Dose.FC.LYZ.S (ISC-enriched organoids [2]; [9]): 0.036 log 2 fold change
Dose.FC.LYZ.S (ISC-enriched organoids [2]; [10]): 0.023 log 2 fold change
Dose.FC.LYZ.S (ISC-enriched organoids [2]; [11]): −0.007 log 2 fold change
SSMD.CTG_Rep (strictly standardized mean difference) (ISC-enriched organoids [3]; [4]): −0.118
SSMD.CTG_Rep (strictly standardized mean difference) (ISC-enriched organoids [3]; [5]): 0.291
SSMD.CTG_Rep (strictly standardized mean difference) (ISC-enriched organoids [3]; [6]): 0.114
SSMD.CTG_Rep (strictly standardized mean difference) (ISC-enriched organoids [3]; [7]): 0.061
Dose.FC.CTG (ISC-enriched organoids [3]; [8]): −0.062 log 2 fold change
Z.CTG (ISC-enriched organoids [3]; primary screen, dose 0.08 uM): −0.149
Dose.FC.CTG (ISC-enriched organoids [3]; [9]): 0.087 log 2 fold change
Z.CTG (ISC-enriched organoids [3]; primary screen, dose 0.40 uM): 0.207
Dose.FC.CTG (ISC-enriched organoids [3]; [10]): 0.034 log 2 fold change
Z.CTG (ISC-enriched organoids [3]; primary screen, dose 2.00 uM): 0.082
Dose.FC.CTG (ISC-enriched organoids [3]; [11]): 0.017 log 2 fold change
Z.CTG (ISC-enriched organoids [3]; primary screen, dose 10.00 uM): 0.040
